According to US9079899B2, “Anti-staphylococcal celecoxib derivatives” (THE OHIO STATE UNIVERSITY, priority 2010, dated 2015):
In brackets after ≈: the same amount, converted by molar mass. Entries after “also recorded” stand apart in the source; their conditions may differ. Like-named read-outs stand apart in the source and are kept apart here.

How the values were obtained:
S. aureus (ATCC 29213) = assay: MIC, broth microdilution; format: cell-based; conditions: Staphylococcus aureus
[1] = test system: S. epidermidis (ATCC 35984); assay: MIC, broth microdilution; format: cell-based; conditions: Staphylococcus epidermidis
[2] = test system: HT-29 human colon adenocarcinoma cells; assay: Antiproliferative assay (MTT); format: cell-based; conditions: for IC50: Homo sapiens, HT-29, 24-h exposure, 10% FBS-supplemented RPMI 1640, MTT; for Selectivity ratio: IC50 (HT-29) / MIC against S. aureus
Procedure: As celecoxib has been reported to be cytotoxic to cancer cells, the growth inhibitory activities of celecoxib and selected derivatives were assessed in. HT-29 human colon adenocarcinoma cells after 24-h exposure in 10% FBS-supplemented RPMI 1640 medium.
Antiproliferative assay. The cytotoxicity of individual test agents in HT-29 human colon adenocarcinoma cells was evaluated by using the 3-(4,5-dimethylthiazol-2-yl)-2,5-diphenyltetrazolium (MTT) assay. Briefly, HT-29 cells were seeded into 96-well plates at 1×10^4 cells/well (with a minimum of 6 wells per test condition) in RPMI 1640 medium supplemented with 10% FBS and 10 μg/ml of gentamicin. After overnight incubation at 37° C. under 5% CO2, the medium from each well was removed and replenished with fresh aliquots of the same medium containing various concentrations of test agents dissolved in DMSO (final concentration, 0.1%). Control cells were treated with DMSO alone at a concentration equal to that in drug-treated cells. After 24 h of drug exposure, the medium was removed and replaced by 100 μl of 0.5 mg/ml MTT in 10% FBS-containing medium, and the cells were incubated in the CO2 incubator at 37° C. for 2 h. Subsequently, medium was removed from each well, and the reduced MTT dye was dissolved with 100 μl of DMSO per well. Absorbance at 570 nm was measured with a plate reader. The 50% inhibitory concentration (IC50) of each drug was determined from dose-response curves by using CalcuSyn software (Biosoft, Cambridge, United Kingdom).

S. aureus = assay: CFU of S. aureus after exposure to celecoxib at the MIC; format: cell-based; conditions: at the MIC of 32 μg/ml, after 24 h
Source text: The inventors examined the suppressive effect of celecoxib on the growth of S. aureus (ATCC 29213), S. epidermidis (ATCC 35984), and two different strains of MRSA (ATCC 33592 and SCCmec VT), as shown in Table IX.

MRSA (ATCC 33592) = assay: MIC, broth microdilution; format: cell-based, methicillin-resistant Staphylococcus aureus; conditions: Staphylococcus aureus; read-out: MIC MRSA (ATCC 33592)
three strains of MRSA = assay: MIC, text statements on the three strains of MRSA together; format: cell-based, methicillin-resistant Staphylococcus aureus; conditions: Staphylococcus aureus, read-out: MIC against MRSA
Procedure: Antibacterial assays. The MIC of each agent was determined following the guidelines for the broth microdilution method recommended by the Clinical and Laboratory Standards Institute. Wikler, M. A. Performance Standards for Antimicrobial Susceptibility Testing; Eighteenth Informational Supplement Clinical and Laboratory Standards Institute: 2008. Briefly, bacteria grown overnight on Luria Bertani (LB) agar plates were suspended in phosphate-buffered saline (PBS) to an O.D. of 1.0 at 600 nm, which was equivalent to 2×10^9 CFU/ml, and then diluted in CAMHB to a final concentration of 5×10^5 CFU/ml. […] The MIC of each agent was defined as the lowest concentration at which no growth of bacteria was observed.

MRSA ATCC 33592 = assay: Time-kill assay; format: cell-based, methicillin-resistant Staphylococcus aureus; conditions: for reduction in CFU: after 24-h exposure to 8 times the MIC, CAMHB
Procedure: Numbers of viable bacteria in the broth after each exposure period were enumerated by CFU assay, and the results expressed as CFU/ml. Points indicate means, and bars indicate SD (n=3). The dashed line represents 99.9% cell killing. Ctl, control.
Otherwise, it is considered bacteriostatic. Pankey, G. A.; Sabath, L. D. Clin. Infect. Dis., 38, 864-870 (2004). To category these novel agents, represented by compounds 9, 36, and 46, in this regard, their time-killing kinetics were assessed in MRSA ATCC 33592 over a 24-h treatment period. Overnight-grown bacteria were inoculated in cation-adjusted Muller Hinton broth (CAMHB) at a concentration of 5×10^5 CFU/ml followed by exposure to individual compounds at 2- to 8-fold their respective MIC values. […] Accordingly, compounds 36 and 46 were classified as bactericidal. As the killing was time-dependent, the antibacterial effect of these agents was not caused by the disruption of membrane integrity.
Time-kill assay. To analyze the kinetics of bacterial cell killing, MRSA ATCC 33592 cells at a density of 5×10^5 CFU/ml were treated with test agents at 2-, 4-, and 8-fold MICs in triplicate in 24-well plates. Bacterial survival in medium containing DMSO at a concentration equal to that used for drug-treated bacteria served as control. At different times after the start of drug exposure, a 100 μl aliquot of the bacterial suspension was taken from each well and serially diluted with PBS. The diluted samples were spread onto LB agar plates followed by incubation at 37° C. for 16 h. The bacterial colonies on each plate were enumerated, and the number of viable bacteria in each well was expressed as CFU per milliliter.

MRSA (SCCmec VT) = assay: MIC, broth microdilution; format: cell-based, methicillin-resistant Staphylococcus aureus
[3] = test system: S. lugdunesis (NTUH isolate); assay: MIC, broth microdilution; format: cell-based; conditions: read-out: MIC S. lugdunesis (NTUH isolate)
S. aureus (ATCC 12598) = assay: MIC, broth microdilution; format: cell-based; conditions: Staphylococcus aureus, ATCC12598
[4] = test system: S. epidermidis (ATCC 12228); assay: MIC, broth microdilution; format: cell-based; conditions: Staphylococcus epidermidis, ATCC12228
MRSA (ATCC 49476) = assay: MIC, broth microdilution; format: cell-based, methicillin-resistant Staphylococcus aureus; conditions: Staphylococcus aureus
MRSA 33592 = assay: Survival of MRSA-infected mice; format: in vivo, C57BL/6 mice; conditions: once, 1 h postinfection, 5×10^7 CFU i.p.
Procedure: (A) Effect of intraperitoneal administration of Cpd-36 and Cpd-46 on survival of methicillin-resistant Staphylococcus aureus-infected mice. C57BL/6 mice were inoculated intraperitoneally with 5×10^7 CFU of MRSA 33592. At 1 h postinfection, mice were treated intraperitoneally once with vehicle, Cpd-36 or Cpd-46 at 30 mg/kg (B) Effect of oral administration of Cpd-46 on survival of MRSA 33592-infected mice. One hour after intraperitoneal inoculation with 5×10^7 CFU of MRSA 33592, C57BL/6 mice were treated orally once with Cpd-46 at 100 mg/kg or vehicle. Survival data are presented as Kaplan-Meier survival curves for each treatment group (n=5). The difference in the mean survival times of the groups was statistically significant at P values of 0.05.

[5] = test system: S. haemolyticus (ATCC 29970); assay: MIC, broth microdilution; format: cell-based; conditions: Staphylococcus haemolyticus, ATCC29970
S. hominis (ATCC 27844) = assay: MIC, broth microdilution; format: cell-based; conditions: Staphylococcus hominis, ATCC27844
[6] = test system: S. saprophyticus (ATCC 15305); assay: MIC, broth microdilution; format: cell-based; conditions: Staphylococcus saprophyticus, ATCC15305
[7] = ATCC29213, 24 h, CAMHB, 24 h, 37° C., read-out: MIC S. aureus (ATCC 29213)
[8] = ATCC35984, 24 h, CAMHB, 24 h, 37° C., read-out: MIC S. epidermidis (ATCC 35984)
[9] = Table XIII, S. aureus (SSCmecVT)
[10] = Staphylococcus aureus, MRSA, read-out: MIC MRSA (SCCmec VT)

IC50 [2] [µg/mL] | MIC (S. aureus (ATCC 29213); [7]) [µg/mL] | MIC [1, 8] [µg/mL] | MIC (MRSA (ATCC 33592)) [µg/mL] | MIC (MRSA (SCCmec VT); [10]) [µg/mL] | MIC [4] [µg/mL] | MIC (MRSA (ATCC 49476)) [µg/mL] | SMILES | reduction in CFU (MRSA ATCC 33592) [%] | MIC (MRSA (SCCmec VT); [9]) [µg/mL] | Selectivity ratio [2] | further results
12 (≈ 27.8 µM) | ≤ 2 | ≤ 2 | 2 (≈ 4.64 µM) |  |  |  | NC(=O)c1ccc(-n2nc(C(F)(F)F)cc2-c2c3ccccc3cc3ccccc23)cc1 [Compound 9, 4-(5-Anthracen-9-yl-3-trifluoromethyl-pyrazol-1-yl)-benzamide] | 99.14 |  |  | MIC (three strains of MRSA): 0.5 to 2 µg/mL (≈ 1.16 to 4.64 µM); dose-dependent effect on cell killing (MRSA ATCC 33592; range of 2×-8×MIC): did not show a dose-dependent effect
28 (≈ 70.6 µM) | 4 (≈ 10.1 µM) | 4 (≈ 10.1 µM) | 4 (≈ 10.1 µM) | 4 (≈ 10.1 µM) | 4 (≈ 10.1 µM) | 4 (≈ 10.1 µM) | Cc1ccc(-c2cc(C(F)(F)F)nn2-c2ccc(NS(N)(=O)=O)cc2)cc1 [Compound 41, N-[4-(5-p-Tolyl-3-trifluoromethyl-pyrazol-1-yl)-phenyl]-aminosulfonamide] |  |  |  | MIC (S. aureus (ATCC 12598)): 4 µg/mL (≈ 10.1 µM)
20 (≈ 41.5 µM) |  |  |  |  |  |  | NS(=O)(=O)Nc1ccc(-n2nc(C(F)(F)F)cc2-c2c3ccccc3cc3ccccc23)cc1 [Compound 46, N-[4-(5-Anthracen-9-yl-3-trifluoromethyl-pyrazol-1-yl)-phenyl]-aminosulfonamide] | 99.99 | 0.5 (≈ 1.04 µM) | 40 | classification bactericidal / bacteriostatic (MRSA ATCC 33592; bactericidal = 99.9% reduction in inoculum within 24 h): bactericidal; also recorded: bacteriostatic; survival of MRSA-infected mice (MRSA 33592; intraperitoneal, 30 mg/kg): improve the survival; survival of MRSA-infected mice (MRSA 33592; oral, 100 mg/kg): improve the survival
11 (≈ 22.8 µM) |  |  | 2 (≈ 4.15 µM) | 2 (≈ 4.15 µM) | 2 (≈ 4.15 µM) | 2 (≈ 4.15 µM) | NS(=O)(=O)Nc1ccc(-n2nc(C(F)(F)F)cc2-c2ccc3cc4ccccc4cc3c2)cc1 [Compound 47, N-[4-(5-Anthracen-2-yl-3-trifluoromethyl-pyrazol-1-yl)-phenyl]-aminosulfonamide] |  |  |  | MIC [5]: 16 µg/mL (≈ 33.2 µM); MIC (S. hominis (ATCC 27844)): 2 µg/mL (≈ 4.15 µM); MIC [6]: 8 µg/mL (≈ 16.6 µM)

SMILES | IC50 [2] [µg/mL] | MIC (S. aureus (ATCC 29213); [7]) [µg/mL] | MIC [1, 8] [µg/mL] | MIC (MRSA (ATCC 33592)) [µg/mL] | MIC (MRSA (SCCmec VT); [10]) [µg/mL] | MIC [4] [µg/mL] | MIC (MRSA (ATCC 49476)) [µg/mL] | reduction in CFU (MRSA ATCC 33592) [%] | MIC (MRSA (SCCmec VT); [9]) [µg/mL] | Selectivity ratio [2] | further results
Cc1ccc(-c2cc(C(F)(F)F)nn2-c2ccc(S(N)(=O)=O)cc2)cc1 [Celecoxib, celecoxib] | 18 (≈ 47.2 µM) |  |  |  |  |  |  |  |  |  | MIC (S. aureus (ATCC 29213); ATCC29213, Table IX, S. aureus (ATCC 29213), read-out: MIC): 32 µg/mL (≈ 83.9 µM); MIC ([1]; ATCC35984, Table IX, S. epidermidis (ATCC 35984), read-out: MIC): 16 µg/mL (≈ 42 µM); decrease in CFU relative to control (S. aureus): 6 log
NS(=O)(=O)Nc1ccc(-n2nc(C(F)(F)F)cc2-c2ccc3c(ccc4ccccc43)c2)cc1 [Compound 36, N-[4-(5-Phenanthren-2-yl-3-trifluoromethyl-pyrazol-1-yl)-phenyl]-aminosulfonamide] | 12 (≈ 24.9 µM) | ≤ 2 | ≤ 2 |  |  |  |  | 99.91 | 1 (≈ 2.07 µM) | 12 | MIC [3]: 2 µg/mL (≈ 4.15 µM)
